Literature values in US20090117584A1, “Non-Human mammalian Arthritis Model Featuring Human Antibodies Against Citrul-Linated Proteins” (GENMAB A/S, priority 2005, published 2009).

Tests used:
human IgG = conditions: SCID mice engrafted with human RA tissue, treated with T-614
anti-CCP antibodies = conditions: RA patients; anti-TNFα therapy in combination with low-dose methotrexate

Compound | levels of human IgG in SCID-HuRag mice (human IgG) | anti-CCP titers (anti-CCP antibodies)
CS(=O)(=O)Nc1cc2occ(NC=O)c(=O)c2cc1Oc1ccccc1 [T-614] | decreases | –
infliximab: anti-TNFalpha therapy, named in the cited title | – | decrease
